Laboratory results: patent US11878970B2, “Allosteric chromenone inhibitors of phosphoinositide 3-kinase (PI3K) for the treatment of disease” (Petra Pharma Corporation, priority 2021, dated 2024)

Key:
[1] = molecular target: T1, PI3K-α (PIK3CA) wild-type (WT), p110α/p85α complex (Homo sapiens, UniProt P42336); test: PI3K-alpha kinase (PIK3CA) biochemical activity, ADP-Glo, wild-type; conditions: Soy PI lipid substrate
T1 construct: Recombinant, catalytically active human full length PIK3KA Wild-type and H1047R mutant; 6×His (N); purchased EMD Millipore Sigma 14-602M
Description: (§1) PI3K-Alpha Kinase (PIK3CA) Activity, Wild-Type and H1047R Mutant and Determining IC50 Values for Inhibitors
(§2) Recombinant, catalytically active human full length PIK3KA Wild-type and H1047R mutant were purchased as 1:1 complex of N-terminal 6×his tagged p110α (catalytic) and untagged p85α (regulatory subunit) from EMD Millipore Sigma (cat. no. 14-602M and 14-792M, respectively). PIP2diC8 (Avanti Polar Lipids Inc., cat. no. 850185) or Soy PI (Avanti Polar Lipids Inc., cat. No. 840044P) was used as lipid substrate. PIP2diC8 or PI lyophilized powder was dissolved in milliQ water to a concentration of 1 mM just before use. 10 mM stock compounds in DMSO were serially diluted 1:3 to generate a 10-point curve and plated using an acoustic liquid handler system (Echo 550 series instrument, Labcyte). A 10× intermediate compound plate (200 uM starting compound concentration and 10% DMSO) was prepared before starting the reaction. A typical reaction mixture (50 uL) comprised 40 mM HEPES buffer, pH 7.4, 25 mM MgCl2, 0.01% v/v triton-X-100, 1% v/v DMSO, 20 mM NaCl, 1-5 nM WT or H1047R PI3K protein, 20 uM ATP, and 50 uM PIP2diC8 or Soy PI. 1% DMSO buffer alone without test compound was employed as MAX control (full activity in the absence of any inhibitor), and no enzyme control was used to determine the level of background Adenosine 5′-diphosphate (ADP) (MIN control). First, Wild-type (WT) and H1047R mutant protein in kinase buffer with all components except ATP were incubated with or without compound at 27° C. for 1 h. After the pre-incubation, the reaction was initiated by the addition of 20 uL of 50 uM ATP (20 uM final concentration). The reaction was allowed to proceed until about 10% conversion of ATP (2 uM ADP) at 27° C. After that time, 5 uL of reaction was mixed with 5 uL of ADP-Kinase Glo Reagent (ADP-Glo Kinase assay kit, Promega cat. no. V9102) supplemented with MgCl2 10 mM to stop the reaction and deplete the remaining ATP for 40 min at room temperature. Then, 10 uL of Kinase Detection Reagent (ADP-Glo Kinase assay kit, Promega cat. no. V9102) was added to simultaneously convert ADP to ATP and allow the newly synthesized ATP to be measured using a luciferase/luciferin reaction. After 30 min at room temperature the light generated was measured using a luminometer (EnVision plate reader, Perkin Elmer). Process data through Genedata-Screener tool. Relative IC50 values are determined using luminescence units by calculating percent inhibition with respect to on-plate “MIN” and “MAX” controls. Data was analyzed using a 4-parameter nonlinear logistic equation (four-parameter logistic concentration-response curve): Y=bot+[(top−bot)/1+(x/IC50)slope] where Y=% inhibition, X=concentration yielding y % inhibition, Bottom=minimum value of y attained by curve, Top=maximum value of y attained by curve and Slope=steepness of curve at IC50. % Inh=[(median Max−x/median Max−median Min)]·100 IC50: concentration of compound that reduces a given response (ligand binding, enzyme response) by 50%. IC50 relative: concentration giving half the compound's maximum response.

[2] = molecular target: T2, PI3K-α (PIK3CA) H1047R mutant, p110α/p85α complex (Homo sapiens, UniProt P42336, H1047R); test: PI3K-alpha kinase (PIK3CA) biochemical activity, ADP-Glo, H1047R mutant; conditions: Soy PI lipid substrate
T2 construct: Recombinant, catalytically active human full length PIK3KA Wild-type and H1047R mutant; 6×His (N); purchased EMD Millipore Sigma 14-792M
Description: as §1, §2

T2 sequence (P42336 whole entry H1047R): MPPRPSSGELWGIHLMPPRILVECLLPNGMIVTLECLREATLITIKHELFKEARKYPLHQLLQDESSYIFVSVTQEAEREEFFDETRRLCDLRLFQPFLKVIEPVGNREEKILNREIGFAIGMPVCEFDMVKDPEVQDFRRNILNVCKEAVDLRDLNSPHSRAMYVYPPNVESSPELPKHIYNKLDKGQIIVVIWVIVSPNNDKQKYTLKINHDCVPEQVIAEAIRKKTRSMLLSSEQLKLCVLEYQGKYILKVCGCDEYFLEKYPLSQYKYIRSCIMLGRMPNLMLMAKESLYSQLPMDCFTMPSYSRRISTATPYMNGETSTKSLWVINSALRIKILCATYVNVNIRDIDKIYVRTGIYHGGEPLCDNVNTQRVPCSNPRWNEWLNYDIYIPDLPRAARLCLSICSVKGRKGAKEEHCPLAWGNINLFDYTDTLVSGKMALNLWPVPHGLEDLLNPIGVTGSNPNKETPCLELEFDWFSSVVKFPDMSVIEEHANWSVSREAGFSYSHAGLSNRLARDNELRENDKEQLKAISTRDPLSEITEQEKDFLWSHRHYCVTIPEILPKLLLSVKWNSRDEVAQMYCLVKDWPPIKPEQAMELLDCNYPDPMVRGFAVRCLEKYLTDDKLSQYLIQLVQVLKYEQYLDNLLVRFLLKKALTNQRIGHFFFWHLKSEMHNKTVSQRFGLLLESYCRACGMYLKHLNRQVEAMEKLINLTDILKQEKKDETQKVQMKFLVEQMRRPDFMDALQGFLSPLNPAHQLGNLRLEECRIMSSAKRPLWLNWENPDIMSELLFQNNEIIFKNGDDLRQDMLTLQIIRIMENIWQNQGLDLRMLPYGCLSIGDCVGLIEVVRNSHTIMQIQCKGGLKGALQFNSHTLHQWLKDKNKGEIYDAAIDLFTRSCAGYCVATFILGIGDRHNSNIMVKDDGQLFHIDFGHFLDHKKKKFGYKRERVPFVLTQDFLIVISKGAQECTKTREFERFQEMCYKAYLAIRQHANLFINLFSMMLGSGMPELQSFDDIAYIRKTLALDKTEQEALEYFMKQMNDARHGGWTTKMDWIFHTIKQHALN
T2 sequence (P27986 whole entry partner): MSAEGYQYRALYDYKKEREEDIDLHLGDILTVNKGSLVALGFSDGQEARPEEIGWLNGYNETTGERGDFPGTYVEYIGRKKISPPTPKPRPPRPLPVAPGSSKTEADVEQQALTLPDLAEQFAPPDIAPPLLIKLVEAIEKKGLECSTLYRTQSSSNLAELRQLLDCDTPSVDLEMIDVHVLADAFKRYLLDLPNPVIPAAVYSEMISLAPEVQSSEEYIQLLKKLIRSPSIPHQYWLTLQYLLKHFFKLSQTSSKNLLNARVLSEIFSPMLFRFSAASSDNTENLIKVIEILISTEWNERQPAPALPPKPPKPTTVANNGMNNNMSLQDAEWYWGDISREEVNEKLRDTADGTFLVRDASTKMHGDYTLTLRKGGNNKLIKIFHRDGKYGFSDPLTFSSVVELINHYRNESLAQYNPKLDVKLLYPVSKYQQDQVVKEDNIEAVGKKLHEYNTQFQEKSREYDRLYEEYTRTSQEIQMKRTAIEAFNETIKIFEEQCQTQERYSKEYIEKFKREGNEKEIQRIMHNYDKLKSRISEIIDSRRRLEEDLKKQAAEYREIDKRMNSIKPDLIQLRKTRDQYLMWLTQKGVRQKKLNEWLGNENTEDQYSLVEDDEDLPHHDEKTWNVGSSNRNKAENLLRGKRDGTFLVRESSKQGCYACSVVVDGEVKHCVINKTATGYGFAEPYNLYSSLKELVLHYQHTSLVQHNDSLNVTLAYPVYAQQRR

| Compound | IC50 [1] | IC50 [2] |
| --- | --- | --- |
| Cc1cc(C(C)Nc2ccccc2C(=O)O)c2oc(-c3ccc4ccnn4c3)cc(=O)c2c1 (single isomer, unassigned) [Example 67, 2-[1-(6-Methyl-4-oxo-2-pyrazolo[1,5-a]pyridin-6-yl-chromen-8-yl)ethylamino]benzoic acid] | 1000 to 5000 nM | < 500 nM |
| Cc1cc(C(C)Nc2ccccc2C(=O)O)c2oc(-c3ccc4c(n3)N(C)C(=O)C4)cc(=O)c2c1 (single isomer, unassigned) [Example 141, 2-[1-[6-Methyl-2-(1-methyl-2-oxo-3H-pyrrolo[2,3-b]pyridin-6-yl)-4-oxo-chromen-8-yl]ethylamino]benzoic acid] | 1000 to 5000 nM | < 500 nM |
| Cc1cc(C(C)Nc2ccccc2C(=O)O)c2oc(-c3ccc4ccnn4c3)c(C)c(=O)c2c1 (single isomer, unassigned) [Example 157, 2-[1-(3,6-Dimethyl-4-oxo-2-pyrazolo[1,5-a]pyridin-6-yl-chromen-8-yl)ethylamino]benzoic acid] | 1000 to 5000 nM | < 500 nM |
| Cc1cc(C(C)Nc2ccccc2C(=O)O)c2oc(-c3cc4ncccc4[nH]3)cc(=O)c2c1 (single isomer, unassigned) [Example 147, 2-[1-[6-Methyl-4-oxo-2-(1H-pyrrolo[3,2-b]pyridin-2-yl)chromen-8-yl]ethylamino]benzoic acid] | 1000 to 5000 nM | < 500 nM |
| Cc1cc(C(C)Nc2ccccc2C(=O)O)c2oc(-c3ccc4cn(C)nc4n3)cc(=O)c2c1 (single isomer, unassigned) [Example 135, 2-[1-[6-Methyl-2-(2-methylpyrazolo[3,4-b]pyridin-6-yl)-4-oxo-chromen-8-yl]ethylamino]benzoic acid] | 5000 to 10000 nM | < 500 nM |
| Cc1cc(C(C)Nc2ccccc2C(=O)O)c2oc(-c3ccn4c(-c5cccnc5)c(C)nc4c3)cc(=O)c2c1 (single isomer, unassigned) [Example 112, 2-[1-[6-Methyl-2-[2-methyl-3-(3-pyridyl)imidazo[1,2-a]pyridin-7-yl]-4-oxo-chromen-8-yl]ethylamino]benzoic acid] | 1000 to 5000 nM | 500 to 1000 nM |
| Cc1cc(C(C)Nc2ccccc2C(=O)O)c2oc(-c3ccc4c(cnn4C)n3)cc(=O)c2c1 (single isomer, unassigned) [Example 53, 2-[1-[6-Methyl-2-(1-methylpyrazolo[4,3-b]pyridin-5-yl)-4-oxo-chromen-8-yl]ethylamino]benzoic acid] | 1000 to 5000 nM | < 500 nM |
| Cc1c(-c2cc3ccccc3[nH]2)oc2c(C(C)Nc3ccccc3C(=O)O)cc(F)cc2c1=O (single isomer, unassigned) [Example 129, 2-[1-[6-Fluoro-2-(1H-indol-2-yl)-3-methyl-4-oxo-chromen-8-yl]ethylamino]benzoic acid] | 500 to 1000 nM | < 500 nM |
| Cc1cc(C(C)Nc2ccccc2C(=O)O)c2oc(-c3cccc4c3cnn4C)cc(=O)c2c1 (single isomer, unassigned) [Example 136, 2-[1-[6-Methyl-2-(1-methylindazol-4-yl)-4-oxo-chromen-8-yl]ethylamino]benzoic acid] | 1000 to 5000 nM | < 500 nM |
| Cc1cc(C(C)Nc2ccccc2C(=O)O)c2oc(-n3ncc4ncccc43)cc(=O)c2c1 (single isomer, unassigned) [Example 48, 2-[1-(6-Methyl-4-oxo-2-pyrazolo[4,3-b]pyridin-1-yl-chromen-8-yl)ethylamino]benzoic acid] | < 500 nM | < 500 nM |
| Cc1cc(C(C)Nc2ccc(Cl)nc2C(=O)O)c2oc(-c3ccc4nn(C)cc4c3)c(C)c(=O)c2c1 (single isomer, unassigned) [Example 181, 6-Chloro-3-[1-[3,6-dimethyl-2-(2-methylindazol-5-yl)-4-oxo-chromen-8-yl]ethylamino]pyridine-2-carboxylic acid] | < 500 nM | < 500 nM |
| Cc1cc(C(C)Nc2ccc(Cl)c(F)c2C(=O)O)c2oc(-c3ccc4nn(C)cc4c3)cc(=O)c2c1 (single isomer, unassigned) [Example 184, 3-Chloro-2-fluoro-6-[1-[6-methyl-2-(2-methylindazol-5-yl)-4-oxo-chromen-8-yl]ethylamino]benzoic acid] | 500 to 1000 nM | < 500 nM |
| Cc1cc(C(C)Nc2ccccc2C(=O)O)c2oc(-c3ccc4c(cnn4CC4COC4)c3)cc(=O)c2c1 (single isomer, unassigned) [Example 138, 2-[1-[6-Methyl-2-[1-(oxetan-3-ylmethyl)indazol-5-yl]-4-oxo-chromen-8-yl]ethylamino]benzoic acid] | > 10000 nM | 500 to 1000 nM |
| Cc1cc(C(C)Nc2ccccc2C(=O)O)c2oc(-c3ccc4nn(CC(C)(C)O)cc4c3)cc(=O)c2c1 (single isomer, unassigned) [Example 122, 2-[1-[2-[2-(2-Hydroxy-2-methyl-propyl)indazol-5-yl]-6-methyl-4-oxo-chromen-8-yl]ethylamino]benzoic acid] | > 10000 nM | 500 to 1000 nM |
| Cc1cc(C(C)Nc2ccccc2C(=O)O)c2oc(-c3ccc4nccn4n3)cc(=O)c2c1 (centres unmarked) [Example 15, 2-[1-(2-Imidazo[1,2-b]pyridazin-6-yl-6-methyl-4-oxo-chromen-8-yl)ethylamino]benzoic acid] | 1000 to 5000 nM | < 500 nM |
| Cc1cc(C(C)Nc2ccccc2C(=O)O)c2oc(-c3cnc4cn(C)nc4c3)cc(=O)c2c1 (single isomer, unassigned) [Example 44, 2-[1-[6-Methyl-2-(2-methylpyrazolo[4,3-b]pyridin-6-yl)-4-oxo-chromen-8-yl]ethylamino]benzoic acid] | 5000 to 10000 nM | 1000 to 5000 nM |
| Cc1cc(C(C)Nc2ccccc2C(=O)O)c2oc(-c3ccc4c(c3)CN(C)C4=O)cc(=O)c2c1 (single isomer, unassigned) [Example 31, 2-[1-[6-Methyl-2-(2-methyl-1-oxo-isoindolin-5-yl)-4-oxo-chromen-8-yl]ethylamino]benzoic acid] | 1000 to 5000 nM | < 500 nM |
| CC(Nc1cccnc1C(=O)O)c1cc(C(F)(F)F)cc2c(=O)cc(-c3cc4ccccc4[nH]3)oc12 (centres unmarked) [Example 185, 3-[1-[2-(1H-Indol-2-yl)-4-oxo-6-(trifluoromethyl)chromen-8-yl]ethylamino]pyridine-2-carboxylic acid] | > 10000 nM | > 10000 nM |
| Cc1cc(C(C)Nc2ccccc2C(=O)O)c2oc(-c3cccc4c3OCO4)cc(=O)c2c1 (single isomer, unassigned) [Example 45, 2-[1-[2-(1,3-Benzodioxol-4-yl)-6-methyl-4-oxo-chromen-8-yl]ethylamino]benzoic acid] | < 500 nM | < 500 nM |
| Cc1cc(C(C)Nc2ccccc2C(=O)O)c2oc(-c3ccc4c(c3)c(C)nn4C)cc(=O)c2c1 (single isomer, unassigned) [Example 165, 2-[1-[2-(1,3-Dimethylindazol-5-yl)-6-methyl-4-oxo-chromen-8-yl]ethylamino]benzoic acid] | < 500 nM | < 500 nM |
| Cc1cc(C(C)Nc2ccccc2C(=O)O)c2oc(-c3ccc4nc(C)cn4c3)cc(=O)c2c1 (single isomer, unassigned) [Example 17, 2-[1-[6-Methyl-2-(2-methylimidazo[1,2-a]pyridin-6-yl)-4-oxo-chromen-8-yl]ethylamino]benzoic acid] | 1000 to 5000 nM | < 500 nM |
| Cc1cc(C(C)Nc2ccccc2C(=O)O)c2oc(-c3ccc4nccn4n3)cc(=O)c2c1 (single isomer, unassigned) [Example 36, 2-[1-(2-Imidazo[1,2-b]pyridazin-6-yl-6-methyl-4-oxo-chromen-8-yl)ethylamino]benzoic acid] | 1000 to 5000 nM | < 500 nM |
